Experimental data reported in patent US8420144B2, “Kokumi-imparting agent, method of using, and compositions containing same” (Ajinomoto Co., Inc., priority 2005, dated 2013).
Numbered stars: 1 amine (or outer) side, 2 acyl side, 3 side chain; on linkers, the order of the positions; unused ones are H or OH. Square brackets hold non-standard residues; d marks the D form. Ends that are not written are not given here. γGlu = O=C(O)[C@H](CCC(=O)[*:2])N[*:1]; Abu = CC[C@H](N)C(=O)O

Tests used:
human CaSR = target: T1, human CaSR (Homo sapiens, UniProt P41180); test: Calcium receptor (CaSR) activation activity: calcium imaging in HEK 293 cells expressing human CaSR; assay type: cell-based; conditions: concentration giving 50% of the maximal activity; single values n = 1, others n = 2 or 3
T1 construct: expressed in transfected cells; host or cells: HEK 293 cells, transient transfection of a CMV-promoter expression vector
T1 sequence (P41180 20-1078): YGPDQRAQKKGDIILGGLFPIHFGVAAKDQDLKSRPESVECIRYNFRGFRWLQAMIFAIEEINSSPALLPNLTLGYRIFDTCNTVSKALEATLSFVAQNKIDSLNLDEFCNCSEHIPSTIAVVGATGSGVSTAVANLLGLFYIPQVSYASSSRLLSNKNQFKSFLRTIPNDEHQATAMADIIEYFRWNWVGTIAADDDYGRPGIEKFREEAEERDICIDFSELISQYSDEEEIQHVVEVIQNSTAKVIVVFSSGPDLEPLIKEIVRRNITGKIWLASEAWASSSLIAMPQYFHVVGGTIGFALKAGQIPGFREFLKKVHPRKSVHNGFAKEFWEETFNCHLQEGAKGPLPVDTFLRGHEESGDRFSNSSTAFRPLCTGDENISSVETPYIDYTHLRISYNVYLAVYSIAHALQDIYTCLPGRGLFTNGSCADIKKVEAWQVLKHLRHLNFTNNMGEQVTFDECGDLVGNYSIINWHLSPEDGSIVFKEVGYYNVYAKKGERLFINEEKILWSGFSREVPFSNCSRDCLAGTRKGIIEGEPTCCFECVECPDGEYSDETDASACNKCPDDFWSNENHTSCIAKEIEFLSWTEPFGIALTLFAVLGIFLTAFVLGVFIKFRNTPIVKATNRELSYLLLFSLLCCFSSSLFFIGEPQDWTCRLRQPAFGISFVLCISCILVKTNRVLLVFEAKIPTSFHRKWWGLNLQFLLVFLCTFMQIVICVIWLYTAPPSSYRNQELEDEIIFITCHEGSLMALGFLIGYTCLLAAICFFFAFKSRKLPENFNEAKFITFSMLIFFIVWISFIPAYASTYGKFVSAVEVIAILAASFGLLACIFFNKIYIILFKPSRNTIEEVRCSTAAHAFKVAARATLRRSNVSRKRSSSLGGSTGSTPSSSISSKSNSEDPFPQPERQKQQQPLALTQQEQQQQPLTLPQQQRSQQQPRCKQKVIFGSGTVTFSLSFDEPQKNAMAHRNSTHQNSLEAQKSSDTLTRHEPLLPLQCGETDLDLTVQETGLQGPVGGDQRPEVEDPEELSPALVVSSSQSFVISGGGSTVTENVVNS
Procedure: Calcium receptor (CaSR) activation activity of peptides obtained in Examples 2, 3, and 5-12 were measured as follows. A cDNA of human CaSR obtained in Example 1 of WO2007/055393A1 was inserted into an expression vector for an animal cell having a CMV promoter, and the cDNA in the vector was introduced into HEK 293 cells, which had multiplied to 70% of the maximal cell density, using FuGINE6 (Roche Ltd.). After culturing the cells for 4 to 48 hours, 0.6-1.0×10^5 of cells/well were disseminated into a 96-well plate, subsequently, the cells were cultured for one day, and then stained using Calcium 3 Assay Kit. The presence or absence of a calcium receptor activation activity of each peptide was confirmed by a calcium imaging method using FLEXSTATION (Molecular Devices Inc., instruction manual). Furthermore, the concentration of each peptide giving 50% of the maximal activity (EC50) was calculated using a dose characteristic curve.

[1] = Quantitative sensory evaluation test: kokumi-imparting activity of peptides combined with known calcium receptor activators or additives; assay type: in vivo, human; conditions: alone; for Intensity of kokumi: Aftertaste / Intensity of kokumi: First and middle taste: n=12, 0 control, 3 intense, 6 extremely intense
Procedure: The intensity of the kokumi-imparting activity of each peptide having confirmed calcium receptor activation activity and a known calcium receptor activator used in combination was measured by a quantitative sensory evaluation test, performed as follows: Samples of γ-Glu-Cys-Gly (glutathione) or γ-Glu-Val-Gly (0.0001 to 1 g/dl), or these samples combined with a calcium receptor activator such as calcium lactate, protamine or polylysine, or GABA (addition concentration: 0.0001 to 1 g/dl) were added to distilled water containing sodium glutamate (0.05 g/dl), inosine monophosphate (0.05 g/dl), and sodium chloride (0.5 g/dl), and the intensity of the kokumi-imparting activity was measured. Sample solutions that became acidic after dissolution of the samples were adjusted to pH 6.8 to 7.2 with NaOH before use. Sensory evaluation scores were used to evaluate as follows: 0 points for the control sample, 3 points for intense activity (as intensity of 0.05 g/dl γ-Glu-Cys-Gly and 0.005 g/dl γ-Glu-Val-Gly), and 6 points for extremely intense activity (as twice intensity of 0.05 g/dl γ-Glu-Cys-Gly and 0.005 g/dl γ-Glu-Val-Gly), and the test was performed with n=12.

[2] = Quantitative sensory evaluation test of kokumi-imparting activity in water with sodium glutamate, inosine monophosphate and sodium chloride; assay type: in vivo, human; conditions: control 0, glutathione 3 points
Procedure: Sample solutions that became acidic after dissolution of the samples were adjusted to pH 6.8 to 7.2 with NaOH before use. Sensory evaluation scores were used for evaluation based on the control sample (0 points) and the glutathione sample (3 points), and the test was performed with n=3.
The sample solutions that became acidic after dissolution of the samples were adjusted to pH 6.8 to 7.2 with NaOH before use. Sensory evaluation scores were used for evaluation based on the control sample (0 points) and the glutathione sample (3 points), and the test was performed with n=5.
Sample solutions that became acidic after dissolution of the samples were adjusted to pH 6.8 to 7.2 with NaOH before use. Sensory evaluation scores were used for evaluation based on the control sample (0 points) and the glutathione sample (3 points), and the test was performed with n=12.

human calcium receptor = target: T2, human calcium receptor (Homo sapiens, UniProt P41180); test: Calcium receptor activation activity: Ca ion concentration-dependent Cl ionic current in Xenopus laevis oocyte expression system; assay type: cell-based; conditions: for calcium receptor activation activity (Ca ion concentration-dependent Cl response current): oocytes voltage-clamped at −70 mV; for Activity (lowest concentration for which current was detected): added at 1000, 300, 100, 30, 10, 3, 1, 0.3 and 0.1 μM
T2 construct: expressed in transfected cells; host or cells: Xenopus laevis oocytes microinjected with cRNA; gene amplified by PCR from human kidney cDNA (Clontech)
T2 sequence (P41180 20-1078): T1 sequence (P41180 20-1078)
Procedure: To evaluate calcium receptor activation activity, a Ca ion concentration-dependent Cl ionic current measuring method using a Xenopus laevis oocyte expression system was used. If each activator is added to Xenopus laevis oocytes expressing the calcium receptor, intracellular Ca ions increase. Then, the Ca ion concentration-dependent Cl channel opens, and the intracellular current value changes as an ionic current. By measuring the change in this intracellular current value, the presence or absence of calcium receptor activation activity can be determined.
Specifically, the abdomen of Xenopus laevis was opened, and an egg batch was taken out and treated with a 1% collagenase solution at 20° C. for 2 hours to obtain individual oocytes. Into the oocytes, 50 nl of 1 μg/μl receptor cRNA or 50 nl of sterilized water per oocyte was introduced by using a micro glass capillary, and the oocytes were cultured at 18° C. for 2 or 3 days. For the culture, a solution obtained by adding 2 mM pyruvic acid, 10 U/ml of penicillin, and 10 μg/ml of streptomycin to the solution in Example 2 was used. After the culture, a test solution was added to the oocytes containing either the cRNA or sterilized water. Electrophysiological measurement was performed by using an amplifier, Geneclamp500 (Axon), and recording software, AxoScope 9.0 (Axon). The oocytes were voltage-clamped at −70 mV by the double electrode voltage clamp method, and the intracellular current was measured via the Ca ion concentration-dependent Cl ion channel. The maximum value of the intracellular current was considered as the response current value.
Calcium receptor activation activity of L-amino acids was evaluated by using the method described in Example 13. That is, oocytes containing either cRNA of the calcium receptor or sterilized water were prepared, and voltage-clamped at −70 mV by the double electrode voltage clamp method. To the voltage-clamped oocytes, alanine (10 mM), arginine (10 mM), asparagine (10 mM), aspartic acid (10 mM), cysteine (10 mM), glutamine (10 mM), glutamic acid (10 mM), glycine (10 mM), histidine (10 mM), isoleucine (10 mM), leucine (10 mM), lysine (10 mM), methionine (10 mM), phenylalanine (10 mM), proline (10 mM), serine (10 mM), threonine (10 mM), tryptophan (10 mM), tyrosine (10 mM), valine (10 mM), ornithine (10 mM), taurine (10 mM), or hydroxyproline (10 mM) was added, and Ca ion concentration-dependent Cl response current was measured. […] As for the aforementioned amino acids, the activation activity was reported in Proc. Natl. Acad. Sci. USA, 2000 Apr. 25, 97(9):4814-9.
Calcium receptor activation activity of D-cysteine was evaluated by using the method described in Example 13. That is, oocytes containing either cRNA of the calcium receptor or sterilized water were prepared, and voltage-clamped at −70 mV by the double electrode voltage clamp method. To the voltage-clamped oocytes, D-cysteine (10 mM), L-cysteine (10 mM), D-tryptophan (10 mM), or L-tryptophan (10 mM) was added, and Ca ion concentration-dependent Cl response current was measured.
Calcium receptor activation activity of peptides was evaluated by using the method described in Example 13. That is, oocytes containing either cRNA of the calcium receptor or sterilized water were prepared, and voltage-clamped at −70 mV by the double electrode voltage clamp method.
Calcium receptor activation activity of peptides was evaluated in the same manner as that of Example 17. Each of the peptides shown in Table 2 was added to voltage-clamped oocytes at 1000 μM, 300 μM, 100 μM, 30 μM, 10 μM, 3 μM, 1 μM, 0.3 μM, and 0.1 μM, and Ca ion concentration-dependent Cl response current was measured.

CC(C)(S)[C@H](NC(=O)CC[C@H](N)C(=O)O)C(=O)NCC(=O)O [γ-Glu-Pen-Gly]
EC50 (human CaSR): 159 to 233 nM

Polylysine
Evaluation remarks ([1]; 0.001 g/dl): Thickness | Intensity of kokumi: Aftertaste ([1]; 0.001 g/dl): 0.5 points | Intensity of kokumi: First and middle taste ([1]; 0.001 g/dl): 0.5 points

CC[C@H](NC(=O)CC[C@H](N)C(=O)O)C(=O)O[C@@H](C)C(=O)O [γ-Glu-Abu-LacA]
EC50 (human CaSR): 102 nM

[γGlu]-Val
Intensity of kokumi: Aftertaste ([2]; Table 5, 0.1 g/dl, n=3): 1.0 points | Intensity of kokumi: First and middle taste ([2]; Table 5, 0.1 g/dl, n=3): 3.0 points | Intensity of kokumi: Aftertaste ([2]; Table 6, 0.1 g/dl, n=5): 1.0 points | Intensity of kokumi: First and middle taste ([2]; Table 6, 0.1 g/dl, n=5): 3.0 points | calcium receptor activation activity (Ca ion concentration-dependent Cl response current) (human calcium receptor; 50 μM peptide): definitive calcium receptor activation activity

CC(C)(NC(=O)CC[C@H](N)C(=O)O)C(=O)NCC(=O)O [γ-Glu-Aib-Gly]
EC50 (human CaSR): 349 to 1170 nM

Protamine
Intensity of kokumi: Aftertaste ([1]; 0.005 g/dl): 1.0 points | Intensity of kokumi: First and middle taste ([1]; 0.005 g/dl): 1.5 points

[γGlu]-Ala
Intensity of kokumi: Aftertaste ([2]; Table 5, 0.1 g/dl, n=3): 0.2 points | Intensity of kokumi: First and middle taste ([2]; Table 5, 0.1 g/dl, n=3): 0.5 points | calcium receptor activation activity (Ca ion concentration-dependent Cl response current) (human calcium receptor; 50 μM peptide): definitive calcium receptor activation activity

[γGlu]-Cys
Intensity of kokumi: Aftertaste ([2]; Table 6, 0.1 g/dl, n=5): 2.0 points | Intensity of kokumi: First and middle taste ([2]; Table 6, 0.1 g/dl, n=5): 2.0 points | calcium receptor activation activity (Ca ion concentration-dependent Cl response current) (human calcium receptor; 50 μM peptide): definitive calcium receptor activation activity

[γGlu]-Met
Intensity of kokumi: Aftertaste ([2]; Table 5, 0.1 g/dl, n=3): 0.4 points | Intensity of kokumi: First and middle taste ([2]; Table 5, 0.1 g/dl, n=3): 1.5 points | calcium receptor activation activity (Ca ion concentration-dependent Cl response current) (human calcium receptor; 500 μM peptide): definitive calcium receptor activation activity

N[C@@H](CCC(=O)NC1(C(=O)NCC(=O)O)CCCC1)C(=O)O [γ-Glu-Cle-Gly]
EC50 (human CaSR): 500 to 1500 nM

CC[C@H](NC(=O)CC[C@H](N)C(=O)O)C(=O)OCC(=O)O [γ-Glu-Abu-GlyA]
EC50 (human CaSR): 65 to 79 nM

NCCCC(=O)O [GABA]
Evaluation remarks ([1]; 0.025 g/dl): Thickness | Intensity of kokumi: Aftertaste ([1]; 0.025 g/dl): 0.5 points | Intensity of kokumi: First and middle taste ([1]; 0.025 g/dl): 0.5 points

CC(C)(C)[C@H](NC(=O)CC[C@H](N)C(=O)O)C(=O)OCC(=O)O [γ-Glu-t-Leu-GlyA]
EC50 (human CaSR): 50 nM

CC(C)[C@H](NC(=O)CC[C@H](N)C(=O)O)C(=O)OCC(=O)O [γ-Glu-Val-GlyA]
EC50 (human CaSR): 140 nM

[γGlu]-[Abu]-Gly
Intensity of kokumi: Aftertaste ([2]; Table 7, 0.01 g/dl, n=12): 2.0 points | Intensity of kokumi: First and middle taste ([2]; Table 7, 0.01 g/dl, n=12): 3.0 points | Activity (lowest concentration for which current was detected) (human calcium receptor): 3 µM

CC(O)C(=O)[O-].CC(O)C(=O)[O-].[Ca+2] (stereo not shown) [Calcium lactate]
Evaluation remarks ([1]; 0.25 g/dl): Thickness | Intensity of kokumi: Aftertaste ([1]; 0.25 g/dl): 0.5 points | Intensity of kokumi: First and middle taste ([1]; 0.25 g/dl): 0.5 points

CC(C)[C@H](NC(=O)CC[C@H](N)C(=O)O)C(=O)O[C@@H](C)C(=O)O [γ-Glu-Val-LacA]
EC50 (human CaSR): 57 nM

C[C@H](OC(=O)[C@@H](NC(=O)CC[C@H](N)C(=O)O)C(C)(C)C)C(=O)O [γ-Glu-t-Leu-LacA]
EC50 (human CaSR): 38 nM

γ-Glu-Orn
calcium receptor activation activity (Ca ion concentration-dependent Cl response current) (human calcium receptor; 500 μM peptide): definitive calcium receptor activation activity

[γGlu]-Val-Phe
Activity (lowest concentration for which current was detected) (human calcium receptor): 30 µM

N[C@H](CS)C(=O)O [D-cysteine]
calcium receptor activation activity (Ca ion concentration-dependent Cl response current) (human calcium receptor; 10 mM amino acid): definitive calcium receptor activation activity
